In patent publication US20210299082A1, “FISETIN COMPOSITION AND A METHOD OF MAKING THE SAME” (priority 2020, published 2021):
Read-outs that look alike come from different tables or passages of the source.

Key:
blood glucose level = blood glucose level in a person after oral fisetin; format: in vivo, human
Experimental: In still another example of the embodiment, fisetin can be used to decrease blood glucose level. Fisetin (500 mg) was ingested by a person after mixing with 75 mL of 53% ethanol and 47% water for 3 consecutive days.

joint pain in a person = assay: joint pain relief in a person after oral fisetin; format: in vivo, human; conditions: for reported joint pain: ingested 5 consecutive days
Experimental: In still another embodiment of the invention, the fisetin composition is used to relieve joint pain in a person. A person ingested fisetin (500 mg) in capsule powder form for 5 consecutive days, fisetin (500 mg) mixed in 35 mL of MCT oil for 5 consecutive days, or fisetin (500 mg) mixed in 40 mL of 40% ethanol and 60% water for 5 consecutive days, each test separated by a month. Reported joint pain decreased only after consuming fisetin in 40% ethanol and 60% water, but not the other regimens.

skin of 20 people = assay: topical skin treatment; format: in vivo, human; conditions: 200 mM fisetin in polyethylene glycol containing titanium nanoparticles; applied to the skin of 20 people for 2 days
Experimental: In yet another example of the invention, fisetin can be used as a topical skin treatment. Fisetin was dissolved in polyethylene glycol containing titanium nanoparticles with a resulting fisetin concentration of 200 mM. Fisetin was applied to the skin of 20 people for 2 days.

[1] = solubility of fisetin in water and in ethanol; format: physicochemical
Experimental: In one embodiment of the invention, a fisetin composition comprises fisetin and a second component that is selected from a group that comprises ethanol. The group may further comprise water. In one example, the solubility of fisetin in water is substantially 0.05 mg/mL or more, such as 0.1 mg/mL or more, 0.15 mg/mL or more, or 0.2 mg/mL. In another example, the solubility of fisetin in ethanol is substantially 2 mg/mL or more, such as 4 mg/mL or more, 6 mg/mL or more, 8 mg/mL or more, or 10 mg/mL or more.

[2] = 500 mg in 75 mL of 53% ethanol and 47% water, 3 consecutive days
[3] = 500 mg for 5 consecutive days, regimen not specified, stated after the 40% ethanol and 60% water result

In the case of O=c1c(O)c(-c2ccc(O)c(O)c2)oc2cc(O)ccc12 [fisetin], the energy (blood glucose level; [2]) is reported as “slight increase”, the metabolism (blood glucose level; [2]) is reported as “slight increase” and the weight decrease (blood glucose level; 500 mg in 75 mL of 53% ethanol and 47% water, 3 consecutive days, to a BMI 22.1) is reported as “approx. 1 kg”. The “waking blood glucose level after the administration” value (blood glucose level; 500 mg mixed with 75 mL of 53% ethanol and 47% water, 3 consecutive days, decreased from 5.7 mmol/L) was 4.8 mmol/L, the muscle gain (blood glucose level; in a month afterwards without increased exercise) was “slight muscle gain” and the energy (joint pain in a person; [3]) was “slight increase”. The metabolism (joint pain in a person; [3]) was “slight increase”, the weight decrease (joint pain in a person; 500 mg for 5 consecutive days, to a BMI 23.7) was “approximately 1 kg” and the reported joint pain (joint pain in a person; 500 mg in capsule powder form) was “not”. For the same compound, the reported joint pain (joint pain in a person; 500 mg mixed in 35 mL of MCT oil) was “not”, the reported joint pain (joint pain in a person; 500 mg mixed in 40 mL of 40% ethanol and 60% water) was “decreased” and the “skin appearance reported by subjects” value (skin of 20 people) was “improved skin appearance”. The solubility ([1]; in water, read-out: solubility of fisetin in water) was no less than 50 µg/mL and the solubility ([1]; organic solvent or mixture, in ethanol, read-out: solubility of fisetin in ethanol) was no less than 2000 µg/mL.
